According to paper PMC8041276 (ACS Chemical Neuroscience, 2021):
Where two headings read alike, the source gives them in different places.

Assays:
5-HT6R [1] = target: T1, 5-HT6R (Homo sapiens, UniProt P50406); experiment: [3H]-LSD radioligand binding assay, HEK293 cells stably expressing human 5-HT6R; set-up: expressed in transfected cells; details: mean of three independent experiments
Method: Final compounds were evaluated in the [^3H]-LSD binding assay using HEK293 cells with stable expression of human 5-HT6R. […] Because the fluorine atom might affect the affinity at target protein as well as physicochemical and pharmacokinetic properties of compound,[22] fluorine substitution at the 2-phenyl ring was applied. […] The analysis of the binding mode of 18 and 28 (Figure 2A) confirmed that the 2-phenyl moiety is placed in the hydrophobic cavity between transmembrane domains (TMs) 4–6.
(§1) All experiments were carried out according to the previously published procedures.[41]−[43] HEK293 cells stably expressing human 5-HT1A, 5-HT6, 5-HT7b, and D2L receptors (prepared with the use of Lipofectamine 2000) or CHO-K1 cells with plasmid containing the sequence coding for the human serotonin 5-HT2A receptor (PerkinElmer) were maintained at 37 °C in a humidified atmosphere containing 5% CO2 and grown in Dulbecco’s modified Eagle’s medium containing 10% dialyzed fetal bovine serum and 500 μg/mL G418 sulfate. For membrane preparation, cells were cultured in 150 cm^2 flasks, grown to 90% confluence, washed twice with prewarmed to 37 °C phosphate buffered saline (PBS), and centrifuged (200g) in PBS containing 0.1 mM EDTA and 1 mM dithiothreitol. Prior to membrane preparation, pellets were stored at −80 °C. Cell pellets were thawed and homogenized in 10 volumes of assay buffer using an Ultra Turrax tissue homogenizer and centrifuged twice at 35 000g for 15 min at 4 °C, with incubation for 15 min at 37 °C between the centrifugations. The composition of the assay buffers was experimentally selected to achieve the maximum signal window (more details in Supporting Information). All assays were carried out in a total volume of 200 μL in 96-well plates for 1 h at 37 °C except 5-HT1AR and 5-HT2AR which were incubated at room temperature and 27 °C, respectively. The process of equilibration was terminated by rapid filtration through Unifilter plates with a 96-well cell harvester, and radioactivity retained on the filters was quantified on a Microbeta plate reader (PerkinElmer, USA). For displacement studies the assay samples contained the following as radioligands (PerkinElmer, USA): 2.5 nM [^3H]-8-OH-DPAT (135.2 Ci/mmol) for 5-HT1AR; 1 nM [^3H]-ketanserin (53.4 Ci/mmol) for 5-HT2AR; 2 nM [^3H]-LSD (83.6 Ci/mmol) for 5-HT6R; 0.8 nM [^3H]-5-CT (39.2 Ci/mmol) for 5-HT7R or 2.5 nM [^3H]-raclopride (76.0 Ci/mmol) for D2LR. Nonspecific binding was defined in the presence of 10 μM 5-HT in 5-HT1AR and 5-HT7R binding experiments, whereas 20 μM mianserin, 10 μM methiothepine, and 10 μM haloperidol were used in 5-HT2AR, 5-HT6R, and D2LR assays, respectively. Each compound was tested in triplicate at seven concentrations (10^–10–10^–4 M). The inhibition constants (Ki) were calculated from the Cheng–Prusoff equation.[44]

5-HT6R [2] = target: T1, 5-HT6R; set-up: expressed in transfected cells; details: cited from earlier work
5-HT2AR = target: T2, 5-HT2AR (Homo sapiens, UniProt P28223); experiment: [3H]-ketanserin radioligand binding assay, CHO-K1 cells; details: mean of three experiments
T2 construct: host or cells: CHO-K1

5-HT1AR = target: T3, 5-HT1AR (Homo sapiens, UniProt P08908); experiment: [3H]-8-OH-DPAT radioligand binding assay, HEK293 cells; details: mean of three experiments
T3 construct: expressed in transfected cells
T3 sequence (P08908 1-422): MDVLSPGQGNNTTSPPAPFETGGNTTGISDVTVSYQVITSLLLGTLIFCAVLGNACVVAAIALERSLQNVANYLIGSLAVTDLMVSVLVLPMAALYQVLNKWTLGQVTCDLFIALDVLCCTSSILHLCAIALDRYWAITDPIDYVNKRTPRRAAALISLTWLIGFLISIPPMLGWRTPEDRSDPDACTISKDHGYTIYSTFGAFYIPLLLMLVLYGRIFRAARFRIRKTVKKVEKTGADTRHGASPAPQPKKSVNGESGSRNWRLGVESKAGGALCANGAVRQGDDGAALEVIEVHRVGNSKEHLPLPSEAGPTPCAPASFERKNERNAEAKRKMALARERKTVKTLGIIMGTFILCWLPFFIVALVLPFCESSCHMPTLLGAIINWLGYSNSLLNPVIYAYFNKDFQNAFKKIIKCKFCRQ
Method: as §1

5-HT6R [3] = target: T1, 5-HT6R; experiment: Basal cAMP production (constitutive Gs signaling) in NG108-15 cells transiently expressing 5-HT6R, CAMYEL BRET; format: cell-based; set-up: expressed in transfected cells; host or cells: NG108-15 (transient, Lipofectamine 2000, cotransfected with the CAMYEL sensor); details: for functional profile: 5-HT6R-dependent Gs signaling, NG108-15 cells; for IC50: decrease of basal cAMP, NG108-15 cells transiently expressing 5-HT6R
Method: NG108-15 cells were grown in Dulbecco’s modified Eagle’s medium (DMEM) supplemented with 10% dialyzed fetal calf serum, 2% hypoxanthine/aminopterin/thymidine (Life Technologies), and antibiotics. cAMP measurement was performed in cells transiently expressing 5-HT6R using the bioluminescence resonance energy transfer (BRET) sensor for cAMP, CAMYEL (cAMP sensor using YFP-Epac-RLuc).[45] NG108-15 cells were cotransfected in suspension with 5-HT6R (0.5 μg DNA/million cells) and CAMYEL constructs (1 μg DNA/million cells), using Lipofectamine 2000 according to the manufacturer’s protocol, and plated in white 96-well plates (Greiner) at a density of 50 000 cells per well. […] Coelanterazine H (Molecular Probes) was added at a final concentration of 5 μM and left at room temperature for 5 min. BRET was measured using a Mithras LB 940 plate reader (Berthold Technologies).

D2R = target: T4, D2R (Homo sapiens, UniProt P14416); experiment: [3H]-raclopride radioligand binding assay, HEK293 cells; details: mean of three experiments
T4 construct: expressed in transfected cells
Method: as §1

5-HT6R [4] = target: T1, 5-HT6R; experiment: Inhibition of 5-CT-stimulated cAMP production in 1321N1 cells; format: cell-based; set-up: expressed in transfected cells; details: antagonism of 5-CT (1000 nM)-stimulated cAMP
Method: The effect of compounds 18, 22, 27, and 28 on adenylate cyclase was examined in 1321N1 cells expressing the 5-HT6R.
The properties of compounds 18, 22, 27, 28 to inhibit cAMP production induced by 5-CT (1000 nM), a 5-HT6R agonist, were evaluated. Compounds were tested in triplicate at eight concentrations (10^–11–10^–4 M). The level of cAMP was measured using frozen recombinant 1321N1 cells expressing the human serotonin 5-HT6R (PerkinElmer). Total cAMP was measured using the LANCE cAMP detection kit (PerkinElmer), according to the manufacturer’s recommendations. For quantification of cAMP levels, 2000 cells/well (5 μL) were incubated with a mixture of compounds (5 μL) for 30 min at room temperature in 384-well white opaque microtiter plate. After incubation, the reaction was stopped and cells were lysed by the addition of 10 μL of working solution (5 μL of Eu-cAMP and 5 μL of ULight-anti-cAMP) for 1 h at room temperature. Time-resolved fluorescence resonance energy transfer (TR-FRET) was detected by an Infinite M1000 Pro (Tecan) using instrument settings from LANCE cAMP detection kit manual. Kb values were calculated from Cheng–Prusoff equation specific for the analysis of functional inhibition curves: Kb = IC50/(1 + A/EC50) where A represents agonist concentration, IC50 the concentration of antagonist producing a 50% reduction in the response to agonist, and EC50 the agonist concentration which causes a half of the maximal response.[44]

5-HT7R = target: T5, 5-HT7R (Homo sapiens, UniProt P34969); experiment: [3H]-5-CT radioligand binding assay, HEK293 cells; details: mean of three experiments
T5 construct: expressed in transfected cells
Method: as §1

T1 sequence (P50406 whole entry, the tested form may be a part): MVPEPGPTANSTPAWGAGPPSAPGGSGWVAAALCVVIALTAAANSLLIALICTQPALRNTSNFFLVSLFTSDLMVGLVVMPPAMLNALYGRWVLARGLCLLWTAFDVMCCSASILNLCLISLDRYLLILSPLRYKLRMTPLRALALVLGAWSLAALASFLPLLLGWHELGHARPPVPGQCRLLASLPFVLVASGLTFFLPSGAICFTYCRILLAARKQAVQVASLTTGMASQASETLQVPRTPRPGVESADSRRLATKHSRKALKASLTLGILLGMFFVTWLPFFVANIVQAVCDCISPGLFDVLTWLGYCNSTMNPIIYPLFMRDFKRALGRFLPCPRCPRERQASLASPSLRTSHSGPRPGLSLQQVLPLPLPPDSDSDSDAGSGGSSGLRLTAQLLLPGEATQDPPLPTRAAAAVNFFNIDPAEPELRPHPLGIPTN
T2 sequence (P28223 whole entry): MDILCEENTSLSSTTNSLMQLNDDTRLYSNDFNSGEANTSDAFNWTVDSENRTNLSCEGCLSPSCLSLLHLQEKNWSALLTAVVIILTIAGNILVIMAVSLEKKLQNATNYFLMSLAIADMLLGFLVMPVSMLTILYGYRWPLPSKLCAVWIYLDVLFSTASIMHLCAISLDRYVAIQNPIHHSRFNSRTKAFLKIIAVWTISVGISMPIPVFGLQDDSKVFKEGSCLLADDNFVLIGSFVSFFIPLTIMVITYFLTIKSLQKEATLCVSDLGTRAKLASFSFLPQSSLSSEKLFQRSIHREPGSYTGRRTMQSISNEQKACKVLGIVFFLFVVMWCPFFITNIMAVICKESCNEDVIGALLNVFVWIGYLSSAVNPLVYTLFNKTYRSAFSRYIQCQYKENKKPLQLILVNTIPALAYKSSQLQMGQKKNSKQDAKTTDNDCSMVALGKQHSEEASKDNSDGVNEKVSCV
T4 sequence (P14416 whole entry): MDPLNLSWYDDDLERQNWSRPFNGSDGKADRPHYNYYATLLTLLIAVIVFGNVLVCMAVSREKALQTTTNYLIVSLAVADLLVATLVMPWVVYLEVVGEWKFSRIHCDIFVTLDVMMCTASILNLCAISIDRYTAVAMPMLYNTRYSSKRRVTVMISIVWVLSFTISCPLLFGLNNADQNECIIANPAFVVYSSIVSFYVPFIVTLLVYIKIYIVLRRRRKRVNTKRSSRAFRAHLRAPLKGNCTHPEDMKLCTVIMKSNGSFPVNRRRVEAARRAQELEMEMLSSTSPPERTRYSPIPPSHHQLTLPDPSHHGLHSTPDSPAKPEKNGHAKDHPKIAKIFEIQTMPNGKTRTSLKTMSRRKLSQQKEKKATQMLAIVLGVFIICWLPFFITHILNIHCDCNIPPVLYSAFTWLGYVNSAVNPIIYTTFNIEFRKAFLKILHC
T5 sequence (P34969 1-432): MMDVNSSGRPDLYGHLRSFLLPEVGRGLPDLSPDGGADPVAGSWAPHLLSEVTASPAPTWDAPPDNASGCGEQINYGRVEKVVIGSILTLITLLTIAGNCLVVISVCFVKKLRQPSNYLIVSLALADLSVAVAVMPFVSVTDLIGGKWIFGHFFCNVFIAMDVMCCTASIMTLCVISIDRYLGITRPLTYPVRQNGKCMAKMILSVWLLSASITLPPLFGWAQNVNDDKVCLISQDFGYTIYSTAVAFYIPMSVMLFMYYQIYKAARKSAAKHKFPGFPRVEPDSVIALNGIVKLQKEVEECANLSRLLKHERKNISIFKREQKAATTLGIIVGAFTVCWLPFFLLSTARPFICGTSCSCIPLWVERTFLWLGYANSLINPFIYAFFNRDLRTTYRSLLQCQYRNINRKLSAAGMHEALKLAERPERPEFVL

| Structure (SMILES) | Ki (5-HT6R [1]) | further results |
| --- | --- | --- |
| O=C(N[C@@H]1CCNC1)c1ccn(S(=O)(=O)c2ccc(F)cc2)c1-c1ccc(F)cc1 [Compound 29] | 2580 nM | – |
| COc1cccc(S(=O)(=O)n2ccc(C(=O)N[C@@H]3CCNC3)c2-c2ccc(F)cc2)c1 [Compound 25] | 350 nM | – |
| O=S(=O)(c1ccccc1)n1ccc2c(NC3CCNC3)nc3ccccc3c21 (stereo not drawn) [I] | – | Ki (5-HT6R [2]): 10 nM |
| O=C(N[C@@H]1CCNC1)c1ccn(S(=O)(=O)c2cccc(OC(F)(F)F)c2)c1-c1ccccc1 [Compound 15] | 52 nM | – |
| Cn1cc(S(=O)(=O)n2ccc(C(=O)N[C@H]3CCNC3)c2-c2ccccc2)cn1 [Compound 20] | 1460 nM | – |
| O=C(N[C@H]1CCNC1)c1ccn(S(=O)(=O)c2cccc(Cl)c2)c1-c1ccccc1 [Compound 18, (S)-2-Phenyl-1-[(3-chlorophenyl)sulfonyl]-N-(pyrrolidin-3-yl)-1H-pyrrole-3-carboxamide] | 25 nM | Ki (5-HT2AR): 14600 nM; Ki (5-HT1AR): 1370 nM; functional profile (5-HT6R [3]): inverse agonist; IC50 (5-HT6R [3]): 170 nM; Ki (D2R): 6840 nM; Kb (5-HT6R [4]): 35 nM; Ki (5-HT7R): 65500 nM |
| O=C(N[C@@H]1CCNC1)c1ccn(S(=O)(=O)c2cccc(C(F)(F)F)c2)c1-c1ccccc1 [Compound 13] | 159 nM | – |
| O=C(N[C@@H]1CCNC1)c1ccn(S(=O)(=O)c2ccc(F)cc2)c1-c1cccc(F)c1 [Compound 23] | 853 nM | – |
| O=C(N[C@@H]1CCNC1)c1ccn(S(=O)(=O)c2cccc(Cl)c2)c1-c1cccc(F)c1 [Compound 21] | 98 nM | – |
| O=C(N[C@H]1CCNC1)c1ccn(S(=O)(=O)c2cccc3cccnc23)c1-c1ccc(F)cc1 [Compound 32] | 1210 nM | – |
| O=C(N[C@@H]1CCNC1)c1ccn(S(=O)(=O)c2ccccc2)c1-c1ccc(F)cc1 [Compound 24] | 102 nM | – |
| O=C(N[C@H]1CCNC1)c1ccn(S(=O)(=O)c2ccc(F)cc2)c1-c1ccc(F)cc1 [Compound 30] | 638 nM | – |
| O=C(N[C@H]1CCNC1)c1ccn(S(=O)(=O)c2cccc(Cl)c2)c1-c1cccc(F)c1 [Compound 22, (S)-2-(3-Fluorophenyl)-1-[(3-chlorophenyl)sulfonyl)-N-(pyrrolidin-3-yl)-1H-pyrrole-3-carboxamide] | 28 nM | Ki (5-HT2AR): 15200 nM; Ki (5-HT1AR): 65700 nM; functional profile (5-HT6R [3]): inverse agonist; IC50 (5-HT6R [3]): 306 nM; Ki (D2R): 6660 nM; Kb (5-HT6R [4]): 6 nM; Ki (5-HT7R): 7060 nM |
| O=C(N[C@H]1CCNC1)c1ccn(S(=O)(=O)c2cccc3ccccc23)c1-c1ccc(F)cc1 [Compound 31] | 391 nM | – |
| O=C(N[C@H]1CCNC1)c1ccn(S(=O)(=O)c2cccc(OC(F)(F)F)c2)c1-c1ccccc1 [Compound 16] | 31 nM | – |
| O=C(N[C@@H]1CCNC1)c1ccn(S(=O)(=O)c2cccc(F)c2)c1-c1ccc(F)cc1 [Compound 26] | 56 nM | – |

Further lines, with some results ahead:

| Ki (5-HT6R [1]) | Structure (SMILES) | further results |
| --- | --- | --- |
| 88 nM | O=C(N[C@@H]1CCNC1)c1ccn(S(=O)(=O)c2cccc(F)c2)c1-c1ccccc1 [Compound 12] | – |
| 162 nM | O=C(N[C@H]1CCNC1)c1ccn(S(=O)(=O)c2cccs2)c1-c1ccccc1 [Compound 19] | – |
| 106 nM | O=C(N[C@H]1CCNC1)c1ccn(S(=O)(=O)c2ccccc2)c1-c1ccccc1 [Compound 8] | – |
| 96 nM | Cc1cccc(S(=O)(=O)n2ccc(C(=O)N[C@@H]3CCNC3)c2-c2ccccc2)c1 [Compound 11] | – |
| 38 nM | O=C(N[C@H]1CCNC1)c1ccn(S(=O)(=O)c2cccc(C(F)(F)F)c2)c1-c1ccccc1 [Compound 14] | – |
| 208 nM | O=C(N[C@@H]1CCNC1)c1ccn(S(=O)(=O)c2ccccc2)c1-c1ccccc1 [Compound 7] | – |
| 324 nM | Cc1ccccc1S(=O)(=O)n1ccc(C(=O)N[C@@H]2CCNC2)c1-c1ccccc1 [Compound 9] | – |
| 35 nM | O=C(N[C@@H]1CCNC1)c1ccn(S(=O)(=O)c2cccc(Cl)c2)c1-c1ccccc1 [Compound 17] | – |
| 179 nM | O=C(N[C@@H]1CCNC1)c1ccn(S(=O)(=O)c2ccccc2Cl)c1-c1ccccc1 [Compound 10] | – |
